Counter-ions that a name gives are not always drawn.

26 compounds from patent US20230203060A1 (GENFLEET THERAPEUTICS (SHANGHAI) INC., priority 2020, published 2023) can be followed below.

The test system of assay [1] is phosphorylated ERK downstream of KRAS G12C in MIA PaCa2 cells. Kind of assay: Cell p-ERK detection experiment (HTRF) in MIA PaCa2. In kind it is cell-based, human. The settings on record: Homo sapiens, MIA PaCa-2, 2 h, MIA PaCa2 cells, 2 hours with compound, Advance ERK phospho-T202/Y204 HTRF kit; read-out: p-ERK IC50. Put shortly:
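Phospho-ERK (T202/Y204) measured by HTRF after 30 min lysis and 4 h antibody incubation in MIA PaCa2 (KRAS G12C) cells, seeded at 2.5E4 per well and treated 2 h with compounds in 3.16-fold steps, final DMSO 0.1%. IC50 from a four-parameter fit of percent inhibition relative to DMSO and blank wells.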
In general terms: In TR-FRET formats the signal depends on donor and acceptor labels being close together.

For assay [2], the system named is KRAS G12C mutant NCI-H358 cells. Kind of assay: Cell proliferation inhibition experiment, 3D spheroid, CellTiter-Glo, NCI-H358. Particulars: Homo sapiens, NCI-H358, 120 h, NCI-H358 (KRAS G12C mutant) 3D spheroid, 5 days with compound, CellTiter-Glo; read-out: H358 IC50. In kind it is cell-based, human. An outline of the steps:
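IC50 values come from four-parameter fits of proliferation inhibition, measured by CellTiter-Glo after 5-day compound exposure. Spheroids of H358 (800 cells) or A549 (400 cells) were formed overnight in 2% FBS medium; DMSO held at 0.1%, doses spaced 3.16-fold.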
(In general: Cellular ATP, detected with luciferase, serves as a proxy for viable cell number.)

Turning to `C=CC(=O)N1CCN2C(=O)c3c(N4CCN(C)C5(CC5)C4)nc(-c4c(O)cccc4F)c(Cl)c3OC[C@H]2C1` [Z83, (6aR)-8-acryloyl-4-chloro-3-(2-fluoro-6-hydroxyphenyl)-1-(4-methyl-4,7-diazaspiro[2 .5]octan-7-yl)-6,6a,7,8,9,10-hexahydro-12H-pyrazino[2,1-c]pyrido[3,4-f][1,4]oxazepin-12 (6aH)-one], the half-inhibitory concentration (IC50) was determined as 107 nM in assay [1] and 18 nM in assay [2].

For the compound `C=CC(=O)N1CCN2C(=O)c3c(N4CCN(C)C[C@@H]4C)nc(-c4c(F)ccc(F)c4O)c(Cl)c3OC[C@H]2C1` [Z356, (6aR)-8-acryloyl-4-chloro-3-(3,6-difluoro-2-hydroxyphenyl)-1-((S)-2,4-dimethylpiperazin-1-yl)-6,6a,7,8,9,10-hexahydro-12H-pyrazino[2,1-c]pyrido[3,4-f][1,4]oxazepin-12-one], the IC50 turned out to be 253 nM in assay [1] and 20 nM in assay [2].

For the compound `C=CC(=O)N1CCN2C(=O)c3c(N4CC(O)CC4(C)C)nc(-c4c(O)cccc4F)c(C)c3OC[C@H]2C1` (single isomer, unassigned) [Z336-2], the IC50 in assay [1] was found to be 63 nM; in assay [2], 5 nM.

In the case of `C=CC(=O)N1CCN2C(=O)c3c(N4C[C@@H](OC)C[C@@H]4C)nc(-c4c(O)cccc4F)c(Cl)c3OC[C@H]2C1` [Z260a, (6aR)-8-acryloyl-4-chloro-3-(2-fluoro-6-hydroxyphenyl)-1-((2S,4S)-4-methoxy-2-methylpyrrolidin-1-yl)-6,6a,7,8,9,10-hexahydro-12H-pyrazino[2,1-c]pyrido[3,4-f][1,4]oxazepin-12-one], the half-maximal inhibitory concentration (IC50) in assay [1] was found to be 22 nM; in assay [2] it was 2.4 nM.

Regarding `C=CC(=O)N1CCN2C(=O)c3c(N4CC[C@@H]5C[C@@H]54)nc(-c4c(O)cccc4F)c(Cl)c3OC[C@H]2C1` (single isomer, unassigned) [Z39-2], the IC50 worked out at 88 nM in assay [1] and 7.8 nM in assay [2].

On to `C=CC(=O)N1CCN2C(=O)c3c(N4Cc5nn(C)cc5[C@@H]4C)nc(-c4c(O)cccc4F)c(Cl)c3OC[C@H]2C1` (single isomer, unassigned) [Z345-2], for which the IC50 in assay [1] was found to be 61 nM; in assay [2] it was 11.8 nM.

For `C=CC(=O)N1CCN2C(=O)c3c(N4CCN(C)C(=O)[C@@H]4C)nc(-c4c(O)cccc4F)c(Cl)c3OC[C@H]2C1` [Z311-1, (6aR)-8-actyloyl-4-chloro-1-((S)-2,4-dimethyl-3-oxopiperazin-1-yl)-3-(2-fluoro-6-hydroxyphenyl)-6,6a,7,8,9,10-hexahydro-12H-pyrazino[2,1-c]pyrido[3,4-f][1,4]oxazepin-12-one], the IC50 in assay [1] worked out at 70 nM; in assay [2] it was 10 nM.

`C=CC(=O)N1CCN2C(=O)c3c(N4C[C@@H](O)CC4(C)C)nc(-c4c(O)ccc(Cl)c4F)c(F)c3OC[C@H]2C1` (single isomer, unassigned) [Z340-1]: the IC50 in assay [1] is 59 nM; in assay [2] it was 5.2 nM.

`C=CC(=O)N1CCN2C(=O)c3c(N4C[C@@H](N(C)C)CC4(C)C)nc(-c4c(O)cccc4F)c(Cl)c3OC[C@H]2C1` (single isomer, unassigned) [Z324-1]: the IC50 in assay [1] amounted to 15 nM; in assay [2], 1.3 nM.

With `C=CC(=O)N1CCN2C(=O)c3c(N4CCC(C)(C)C4)nc(-c4c(O)cccc4F)c(Cl)c3OC[C@H]2C1` [Z21, (6aR)-8-acryloyl-4-chloro-1-(3,3-dimethylpyrrolidin-1-yl)-3-(2-fluoro-6-hydroxyphenyl)-6,6a,7,8,9,10-hexahydro-12H-pyrazino[2,1-c]pyrido[3,4-f][1,4]oxazepin-12-one], the figures for the IC50 in assay [1] and in assay [2] were 325 nM and 29 nM, respectively.

For `C=CC(=O)N1CCN2C(=O)c3c(N4C[C@H](OC)CC4(C)C)nc(-c4c(O)cccc4F)c(Cl)c3OC[C@H]2C1` (single isomer, unassigned) [Z244-2], the IC50 is 5 nM in assay [1] and 0.5 nM in assay [2].

Turning to `C=CC(=O)N1CCN2C(=O)c3c(N4Cc5cn(C)nc5C4C)nc(-c4c(O)cccc4F)c(Cl)c3OC[C@H]2C1` (stereo partly shown) [Z291-2], the figures for the IC50 in assay [1] and in assay [2] were 24 nM and 3.5 nM, respectively.

On to `C=CC(=O)N1CCN2C(=O)c3c(N4C[C@@H](OC)CC4(C)C)nc(-c4c(O)cccc4F)c(F)c3OC[C@H]2C1` (single isomer, unassigned) [Z256a-1], for which the IC50 is 42 nM in assay [1] and 3.4 nM in assay [2].

As for `C=CC(=O)N1CCN2C(=O)c3c(N4Cc5cn(C)nc5[C@H]4C)nc(-c4c(O)cccc4F)c(Cl)c3OC[C@H]2C1` (single isomer, unassigned) [Z291-1S, trifluoroacetate], the results for the IC50 in assay [1] and in assay [2] were 89 nM and 18.4 nM, respectively.

Take `C=CC(=O)N1CCN2C(=O)c3c(N4CCN(C)C[C@@H]4C)nc(-c4c(F)ccc(Cl)c4O)c(Cl)c3OC[C@H]2C1` [Z342, (6aR)-8-acryloyl-4-chloro-3-(3-chloro-6-fluoro-2-hydroxyphenyl)-1-((S)-2,4-dimethylpiperazin-1-yl)-6,6a,7,8,9,10-hexahydro-12H-pyrazino[2,1-c]pyrido[3,4-f][1,4]oxazepin-12-one]: the figures for the IC50 in assay [1] and in assay [2] were 84 nM and 9.5 nM, respectively.

For `C=CC(=O)N1CCN2C(=O)c3c(N4CC(C#N)CC4(C)C)nc(-c4c(O)cccc4F)c(Cl)c3OC[C@H]2C1` (stereo partly drawn) [Z275, (6aR)-8-acryloyl-1-(4-cyano-2,2-dimethylpyrrolidin-1-yl)-4-chloro-3-(2-fluoro-6-hydroxyphenyl)-6,6a,7,8,9,10-hexahydro-12H-pyrazino[2,1-c]pyrido[3,4-f][1,4]oxazepin-12-one], the values for the concentration for half-maximal inhibition (IC50) in assay [1] and in assay [2] were 16 nM and 2.1 nM, respectively.

Turning to `C=CC(=O)N1CCN2C(=O)c3c(N4CCN(C)C[C@@H]4C)nc(-c4c(O)ccc(Cl)c4F)c(Cl)c3OC[C@H]2C1` [Z343, (6aR)-8-acryloyl-4-chloro-3-(3-chloro-2-fluoro-6-hydroxyphenyl)-1-((S)-2,4-dimethylpiperazin-1-yl)-6,6a,7,8,9,10-hexahydro-12H-pyrazino[2,1-c]pyrido[3,4-f][1,4]oxazepin-12-one], the IC50 is 119 nM in assay [1] and 10.4 nM in assay [2].

For the compound `C=CC(=O)N1CCN2C(=O)c3c(N4C[C@@H](N(C)CCOC)C[C@@H]4C)nc(-c4c(O)cccc4F)c(Cl)c3OC[C@H]2C1` [Z358-1], the IC50 was found to be 23 nM in assay [1] and 4.8 nM in assay [2].

With `C=CC(=O)N1CCN2C(=O)c3c(N4CC(N(C)CCOC)CC4(C)C)nc(-c4c(O)cccc4F)c(Cl)c3OCC2C1` (single isomer, unassigned) [Z296-1], the IC50 in assay [1] worked out at 8 nM; in assay [2], 0.4 nM.

Take `C=CC(=O)N1CCN2C(=O)c3c(N4CCC(O)C4(C)C)nc(-c4c(O)cccc4F)c(Cl)c3OC[C@H]2C1` (stereo partly drawn) [Z241, (6aR)-8-acryloyl-1-(3-hydroxy-2,2-dimethylpyrrolidin-1-yl)-4-chloro-3-(2-fluoro-6-hydroxyphenyl)-6,6a,7,8,9,10-hexahydro-12H-pyrazino[2,1-c]pyrido[3,4-f][1,4]oxazepin-12-one]: the figures for the half-inhibitory concentration (IC50) in assay [1] and in assay [2] were 22 nM and 2.6 nM, respectively.

`C=CC(=O)N1CCN2C(=O)c3c(N4CC(N5CCOCC5)CC4(C)C)nc(-c4c(O)cccc4F)c(Cl)c3OC[C@H]2C1` (stereo partly drawn) [Z344, (6aR)-8-acryloyl-4-chloro-1-((2,2-dimethyl-4-morpholinopyrrolidin-1-yl))-3-(2-fluoro-6-hydroxyphenyl)-6,6a,7,8,9,10-hexahydro-12H-pyrazino[2,1-c]pyrido[3,4-f][1,4]oxazepin-12-one]: the IC50 in assay [1] is 10 nM; in assay [2] it was 1.3 nM.

For `C=CC(=O)N1CCN2C(=O)c3c(N4CC[C@@H](OC)[C@@H]4C)nc(-c4c(O)cccc4F)c(Cl)c3OC[C@H]2C1` [Z338-1, (6aR)-8-acryloyl-4-chloro-3-(2-fluoro-6-hydroxyphenyl)-1-((2S,3R)-3-methoxy-2-methylpyrrolidin-1-yl)-6,6a,7,8,9,10-hexahydro-12H-pyrazino[2,1-c]pyrido[3,4-f][1,4]oxazepin-12-one], the IC50 in assay [1] is 46 nM; in assay [2] it was 6 nM.

As for `C=CC(=O)N1CCN2C(=O)c3c(N4CC[C@H](OC)C4(C)C)nc(-c4c(O)cccc4F)c(Cl)c3OC[C@H]2C1` (single isomer, unassigned) [Z241a-1], the concentration for half-maximal inhibition (IC50) in assay [1] turned out to be 33 nM; in assay [2], 1.4 nM.

In the case of `C=CC(=O)N1CCN2C(=O)c3c(N4C[C@@](C)(O)CC4(C)C)nc(-c4c(O)cccc4F)c(F)c3OC[C@H]2C1` (single isomer, unassigned) [Z256b-1], the IC50 in assay [1] stood at 43 nM; in assay [2], 2.8 nM.

`C=CC(=O)N1CCN2C(=O)c3c(N4C[C@H](OC)CC4(C)C)nc(-c4c(O)cccc4F)c(F)c3OC[C@H]2C1` (single isomer, unassigned) [Z256a-2]: the IC50 in assay [1] turned out to be 17 nM; in assay [2], 1.4 nM.

`C=CC(=O)N1CCN2C(=O)c3c(N4C[C@@H](OC)C[C@@H]4C)nc(-c4c(O)cccc4F)c(F)c3OC[C@H]2C1` [Z359-1, (6aR)-8-actyloyl-4-fluoro-3-(2-fluoro-6-hydroxyphenyl)-1-((2S,4S)-4-methoxy-2-methylpyrrolidin-1-yl)-6,6a,7,8,9,10-hexahydro-12H-pyrazino[2,1-c]pyrido[3,4-f][1,4]oxazepin-12-one]: the results for the IC50 in assay [1] and in assay [2] were 93 nM and 8.3 nM, respectively.

In general, IC50 refers to the point on the concentration scale where inhibition reaches its midpoint.
